{
  "source": "paper PMC11492828",
  "about": "(RSC Advances, 2024)",
  "key": {"[1]": {"test_system": "human neuroblastoma (SH-SY5Y) cells", "experiment": "Cytotoxicity/cell viability MTT assay", "assay_type": "cell-based", "conditions": "for Nature in cytotoxicity study: MTT"}, "PPAR-γ": {"target": "T1, PPAR-γ (Homo sapiens, UniProt P37231)", "T1 sequence (P37231 1-505)": "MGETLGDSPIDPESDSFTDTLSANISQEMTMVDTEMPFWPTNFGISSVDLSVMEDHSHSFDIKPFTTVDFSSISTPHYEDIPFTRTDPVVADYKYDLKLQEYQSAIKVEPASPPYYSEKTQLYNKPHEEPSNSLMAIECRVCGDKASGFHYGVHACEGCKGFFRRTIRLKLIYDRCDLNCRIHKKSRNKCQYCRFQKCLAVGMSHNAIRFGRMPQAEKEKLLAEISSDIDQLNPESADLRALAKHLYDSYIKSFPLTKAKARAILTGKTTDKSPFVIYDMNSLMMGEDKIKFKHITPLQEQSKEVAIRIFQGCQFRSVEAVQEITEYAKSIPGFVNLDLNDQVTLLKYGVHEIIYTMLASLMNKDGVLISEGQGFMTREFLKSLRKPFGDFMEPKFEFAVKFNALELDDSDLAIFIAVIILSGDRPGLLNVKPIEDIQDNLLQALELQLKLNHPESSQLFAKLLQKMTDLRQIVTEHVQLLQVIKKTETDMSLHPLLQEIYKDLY", "experiment": "PPAR-γ transactivation assay", "assay_type": "cell-based", "conditions": "SH-SY5Y cells, 1–16 μM"}, "[2]": {"test_system": "Aβ-induced SH-SY5Y cell line", "experiment": "Anti-inflammatory and anti-oxidant activity in the Aβ-induced SH-SY5Y cell line", "assay_type": "cell-based, human", "conditions": "2.5 to 40 μM, vs pioglitazone"}, "ROS": {"test_system": "ROS", "experiment": "Flow cytometric analysis of ROS in Aβ-induced SH-SY5Y cells", "assay_type": "cell-based, human"}, "IL-6": {"test_system": "IL-6", "experiment": "Flow cytometric analysis of IL-6 expression in Aβ-induced SH-SY5Y cells", "assay_type": "cell-based, human"}, "TNF-α": {"test_system": "TNF-α", "experiment": "Flow cytometric analysis of TNF-α expression in Aβ-induced SH-SY5Y cells", "assay_type": "cell-based, human"}, "IL-1β": {"test_system": "IL-1β", "experiment": "Flow cytometric analysis of IL-1β expression in Aβ-induced SH-SY5Y cells", "assay_type": "cell-based, human"}, "[3]": {"conditions": "Homo sapiens, SH-SY5Y, read-out: IC50 MTT assay, SH-SY5Y cells"}, "[4]": {"conditions": "read-out: IC50 MTT assay, SH-SY5Y cells"}},
  "note": "Where two headings read alike, the source gives them in different places.",
  "data": [
    {"smiles": "CC(/C=C/c1ccc(OCC(=O)Nc2ccccc2F)cc1)=N\\O", "note": "[Compound 4f, N-(2-Fluorophenyl)-2-(4-((1E,3E)-3-(hydroxyimino)but-1-en-1-yl)phenoxy)acetamide]", "values": [
      {"measurement": "IC50", "setting": "[1]; [3]", "result": 66.7, "unit": "µM"},
      {"measurement": "Nature in cytotoxicity study", "setting": "[1]; SH-SY5Y cells", "result": "cytotoxic"}
    ]},
    {"smiles": "COc1cc(/C=C/C(C)=N/O)ccc1OCC(=O)Nc1ccccc1", "note": "[Compound 4c, 2-(4-((1E,3E)-3-(Hydroxyimino)but-1-en-1-yl)-2-methoxyphenoxy)-N-phenylacetamide]", "values": [
      {"measurement": "IC50", "setting": "[1]; [3]", "result": 50.7, "unit": "µM"},
      {"measurement": "Nature in cytotoxicity study", "setting": "[1]; SH-SY5Y cells", "result": "cytotoxic"}
    ]},
    {"smiles": "COc1cc(/C=C/C(C)=N/O)ccc1OCC(=O)Nc1ccc(Cl)cc1", "note": "[Compound 4a, N-(4-Chlorophenyl)-2-(4-((1E,3E)-3-(hydroxyimino)but-1-en-1-yl)-2methoxyphenoxy)acetamide]", "values": [
      {"measurement": "PPAR-γ transcriptional activity", "setting": "PPAR-γ", "result": "dose-dependent enhancement"},
      {"measurement": "IC50", "setting": "[1]; [3]", "result": 108, "unit": "µM"},
      {"measurement": "Nature in cytotoxicity study", "setting": "[1]; SH-SY5Y cells", "result": "cell proliferative and non-cytotoxic"},
      {"measurement": "IC50", "setting": "[1]; [4]", "result": "> 100", "unit": "µM"},
      {"measurement": "Anti-inflammatory and anti-oxidant activity (expression of pro-inflammatory cytokines and ROS)", "setting": "[2]", "result": "promising anti-inflammatory activity and anti-oxidant activity"}
    ]},
    {"smiles": "CC(/C=C/c1ccc(OCC(=O)Nc2ccccc2)cc1)=N\\O", "note": "[Compound 4i, 2-(4-((1E,3E)-3-(Hydroxyimino)but-1-en-1-yl)phenoxy)-N-phenylacetamide]", "values": [
      {"measurement": "IC50", "setting": "[1]; [3]", "result": 82.3, "unit": "µM"},
      {"measurement": "Nature in cytotoxicity study", "setting": "[1]; SH-SY5Y cells", "result": "cytotoxic"}
    ]},
    {"smiles": "COc1cc(/C=C/C(C)=N/O)ccc1OCC(=O)Nc1ccccc1C", "note": "[Compound 4e, 2-(4-((1E,3E)-3-(Hydroxyimino)but-1-en-1-yl)-2-methoxyphenoxy)-N-(o-tolyl)acetamide]", "values": [
      {"measurement": "IC50", "setting": "[1]; [3]", "result": 79.7, "unit": "µM"},
      {"measurement": "Nature in cytotoxicity study", "setting": "[1]; SH-SY5Y cells", "result": "cytotoxic"}
    ]},
    {"smiles": "COc1cc(/C=C/C(C)=N/O)ccc1OCC(=O)Nc1cccc(C)c1", "note": "[Compound 4h, 2-(4-((1E,3E)-3-(Hydroxyimino)but-1-en-1-yl)-2-methoxyphenoxy)-N-(m-tolyl)acetamide]", "values": [
      {"measurement": "PPAR-γ transcriptional activity", "setting": "PPAR-γ", "result": "dose-dependent enhancement"},
      {"measurement": "IC50", "setting": "[1]; [3]", "result": 150, "unit": "µM"},
      {"measurement": "Nature in cytotoxicity study", "setting": "[1]; SH-SY5Y cells", "result": "cell proliferative and non-cytotoxic"},
      {"measurement": "IC50", "setting": "[1]; [4]", "result": "> 100", "unit": "µM"},
      {"measurement": "Anti-inflammatory and anti-oxidant activity (expression of pro-inflammatory cytokines and ROS)", "setting": "[2]", "result": "promising anti-inflammatory activity and anti-oxidant activity"}
    ]},
    {"smiles": "CCc1ccc(CCOc2ccc(CC3SC(=O)NC3=O)cc2)nc1", "note": "(stereo not shown) [Pioglitazone, pioglitazone]", "values": [
      {"measurement": "ROS% cell expression", "setting": "ROS; Aβ 10 μM + 2.5 μM compound", "result": 60.98, "unit": "%"},
      {"measurement": "ROS% cell expression", "setting": "ROS; Aβ 10 μM + 5 μM compound", "result": 53.96, "unit": "%"},
      {"measurement": "ROS% cell expression", "setting": "ROS; Aβ 10 μM + 10 μM compound", "result": 41.78, "unit": "%"},
      {"measurement": "ROS% cell expression", "setting": "ROS; Aβ 10 μM + 20 μM compound", "result": 21.01, "unit": "%"},
      {"measurement": "ROS% cell expression", "setting": "ROS; Aβ 10 μM + 40 μM compound", "result": 9.07, "unit": "%"},
      {"measurement": "IL-6% cell expression", "setting": "IL-6; Aβ 10 μM + 2.5 μM compound", "result": 42.95, "unit": "%"},
      {"measurement": "IL-6% cell expression", "setting": "IL-6; Aβ 10 μM + 5 μM compound", "result": 30.23, "unit": "%"},
      {"measurement": "IL-6% cell expression", "setting": "IL-6; Aβ 10 μM + 10 μM compound", "result": 15.09, "unit": "%"},
      {"measurement": "IL-6% cell expression", "setting": "IL-6; Aβ 10 μM + 20 μM compound", "result": 9.51, "unit": "%"},
      {"measurement": "IL-6% cell expression", "setting": "IL-6; Aβ 10 μM + 40 μM compound", "result": 12.31, "unit": "%"},
      {"measurement": "TNF-α% cell expression", "setting": "TNF-α; Aβ 10 μM + 2.5 μM compound", "result": 67.8, "unit": "%"},
      {"measurement": "TNF-α% cell expression", "setting": "TNF-α; Aβ 10 μM + 5 μM compound", "result": 53.92, "unit": "%"},
      {"measurement": "TNF-α% cell expression", "setting": "TNF-α; Aβ 10 μM + 10 μM compound", "result": 24.85, "unit": "%"},
      {"measurement": "TNF-α% cell expression", "setting": "TNF-α; Aβ 10 μM + 20 μM compound", "result": 9.8, "unit": "%"},
      {"measurement": "TNF-α% cell expression", "setting": "TNF-α; Aβ 10 μM + 40 μM compound", "result": 5.5, "unit": "%"},
      {"measurement": "IL-1β% cell expression", "setting": "IL-1β; Aβ 10 μM + 2.5 μM compound", "result": 70.21, "unit": "%"},
      {"measurement": "IL-1β% cell expression", "setting": "IL-1β; Aβ 10 μM + 5 μM compound", "result": 52.38, "unit": "%"},
      {"measurement": "IL-1β% cell expression", "setting": "IL-1β; Aβ 10 μM + 10 μM compound", "result": 32.36, "unit": "%"},
      {"measurement": "IL-1β% cell expression", "setting": "IL-1β; Aβ 10 μM + 20 μM compound", "result": 15.15, "unit": "%"},
      {"measurement": "IL-1β% cell expression", "setting": "IL-1β; Aβ 10 μM + 40 μM compound", "result": 10.76, "unit": "%"}
    ]},
    {"smiles": "COc1cc(/C=C/C(C)=N/O)ccc1OCC(=O)Nc1ccc(C)cc1", "note": "[Compound 4b, 2-(4-((1E,3E)-3-(Hydroxyimino)but-1-en-1-yl)-2-methoxyphenoxy)-N-(p-tolyl)acetamide]", "values": [
      {"measurement": "IC50", "setting": "[1]; [3]", "result": 112, "unit": "µM"},
      {"measurement": "Nature in cytotoxicity study", "setting": "[1]; SH-SY5Y cells", "result": "cell proliferative and non-cytotoxic"}
    ]}
  ]
}
